Reference: patent US3953478A, “Tetrahydrofuranyl bromoacetates biocides” (Stauffer Chemical Company, priority 1975, dated 1976)

Assays:
Type in all cases: cell-based
Aspergillus fumigatus = experiment: In Vitro Agar Screening Test; conditions: potato dextrose agar, 30°C, levels 1, 5, 10, 50 μg/ml, read-out: Minimum Inhibitory Concentration
Procedure: (§1) This test measures the bactericidal, fungicidal and algaecidal properties of a compound when in contact with growing bacteria, fungi or algae in an artificial medium. The test is conducted by adding 20 ml portions of a suitable warm sterile agar solution into 20 × 100 mm Petri dishes at levels of 1, 5, 10 and 50 μg/ml and mixed with the warm mobile agar solution. The treated agar mixture is then allowed to come to room temperature and solidify. Cells of the chosen organism are streaked on the surface of the solidified agar and are then incubated for such lengths of time that untreated samples containing no toxicant show luxurious growth typical of the particular organism. This time varies from 24 hours to 1 week depending on the particular organism. The fungi are incubated at 30°C and the bacteria are incubated at 37°C. The algae are incubated at room temperature under artificial light. Nutrient agar is used as the medium in this test for the bacteria. Potato dextrose agar is used as the medium for the fungi with the exception of Trichophyton mentagrophytes for which Emmons agar is used. A modified Jack Meyers agar is used for the growth of the algae.
(§2) The extent of growth is noted at the end of the incubation period.

Aspergillus niger = experiment: In Vitro Agar Screening Test; conditions: potato dextrose agar, 30°C, levels 1, 5, 10, 50 μg/ml, read-out: Minimum Inhibitory Concentration
Procedure: as §1, §2

Aspergillus oryzae = experiment: In Vitro Agar Screening Test; conditions: potato dextrose agar, 30°C, levels 1, 5, 10, 50 μg/ml, read-out: Minimum Inhibitory Concentration
Procedure: as §1, §2

Bacillus cereus = experiment: In Vitro Agar Screening Test; conditions: nutrient agar, 37°C, levels 1, 5, 10, 50 μg/ml, read-out: Minimum Inhibitory Concentration
Procedure: as §1, §2

Chlorella pyrenoidosa = experiment: In Vitro Agar Screening Test; conditions: Auxenochlorella pyrenoidosa, modified Jack Meyers agar, room temperature, artificial light, levels 1, 5, 10, 50 μg/ml, read-out: Minimum Inhibitory Concentration
Procedure: as §1, §2

Enterobacter aerogenes = experiment: In Vitro Agar Screening Test; conditions: Klebsiella aerogenes, nutrient agar, 37°C, levels 1, 5, 10, 50 μg/ml, read-out: Minimum Inhibitory Concentration
Procedure: as §1, §2

Escherichia coli = experiment: In Vitro Agar Screening Test; conditions: nutrient agar, 37°C, levels 1, 5, 10, 50 μg/ml, read-out: Minimum Inhibitory Concentration
Procedure: as §1, §2

Euglena gracilis = experiment: In Vitro Agar Screening Test; conditions: modified Jack Meyers agar, room temperature, artificial light, levels 1, 5, 10, 50 μg/ml, read-out: Minimum Inhibitory Concentration
Procedure: as §1, §2

Pencillium expansum = experiment: In Vitro Agar Screening Test; conditions: potato dextrose agar, 30°C, levels 1, 5, 10, 50 μg/ml, read-out: Minimum Inhibitory Concentration
Procedure: as §1, §2

Pencillium ochra-chloron = experiment: In Vitro Agar Screening Test; conditions: potato dextrose agar, 30°C, levels 1, 5, 10, 50 μg/ml, read-out: Minimum Inhibitory Concentration
Procedure: as §1, §2

Pseudomonas aeruginosa = experiment: In Vitro Agar Screening Test; conditions: nutrient agar, 37°C, levels 1, 5, 10, 50 μg/ml, read-out: Minimum Inhibitory Concentration
Procedure: as §1, §2

Pseudomonas fluorescens = experiment: In Vitro Agar Screening Test; conditions: nutrient agar, 37°C, levels 1, 5, 10, 50 μg/ml, read-out: Minimum Inhibitory Concentration
Procedure: as §1, §2

Scenedesmus obliquus = experiment: In Vitro Agar Screening Test; conditions: Tetradesmus obliquus, modified Jack Meyers agar, room temperature, artificial light, levels 1, 5, 10, 50 μg/ml, read-out: Minimum Inhibitory Concentration
Procedure: as §1, §2

Trichoderma sp. = experiment: In Vitro Agar Screening Test; conditions: potato dextrose agar, 30°C, levels 1, 5, 10, 50 μg/ml, read-out: Minimum Inhibitory Concentration
Procedure: as §1, §2

[1] = system: Trichophyton mentagrophytes; experiment: In Vitro Agar Screening Test; conditions: Emmons agar, 30°C, levels 1, 5, 10, 50 μg/ml, read-out: Minimum Inhibitory Concentration
Procedure: as §1, §2

Staphylococcus aureus = experiment: Staphylococcus Aureus Use Dilution Test; conditions: Tryptic Soy Broth, 24 hours at 37°C, minimum concentration in which no growth occurs, read-out: Minimum Inhibitory Concentration
Procedure: This test measures the bacteriostatic effectiveness of a particular test compound against Staphylococcus aureus. Tryptic Soy Broth is dispensed aseptically into sterile 13 × 100 mm clear glass culture tubes. The first tube receives 3.6 ml of medium and tubes 2 through 10 receive 2.0 ml of medium. The test compound is dissolved in acetone to give 10 ml of a solution of 0.10% of the test compound. Using a sterile syringe, 0.4 ml of the test compound solution is placed in the first tube containing the 3.6 ml of sterile broth and mixed thoroughly. This operation is continued through to the tenth tube. From the tenth tube, 2.0 ml of solution is removed and discarded. Each tube is then inoculated with 0.1 ml of a 24-hour culture of Staphylococcus aureus in Tryptic Soy Broth, and the mixture is mixed thoroughly using a Vortex mixer. A control is also set up to be sure that the inoculum is viable using a tube of sterile broth containing no added toxicant. The tubes are incubated for 24 hours at 37°C. The tubes are then examined to determine growth of the organism in the culture tubes. The minimum concentration in which no growth of the organism occurs is recorded. The following table gives the minimum inhibitory concentration necessary to control the organism: […]

Measured: MIC

O=C(CBr)OC1CCOC1 (stereo not shown) [Compound No. 1, 3-bromoacetoxy tetrahydrofuran]
12.5 mg/L: Staphylococcus aureus
> 50 mg/L: Escherichia coli | Pseudomonas aeruginosa | Pseudomonas fluorescens
1 mg/L: Chlorella pyrenoidosa | Scenedesmus obliquus
5 mg/L: Aspergillus niger | Euglena gracilis
50 mg/L: all other assays above
